Test: Abuse resistance through nasal inhalation: aminophylline in blood serum after intranasal administration to mice (HPLC)
Type: in vivo, male mice (CBA C50 Black F1 line)
Conditions: 10 μL of solution, blood from retro-orbital sinus about 3 to 5 minutes after administration, pool of three mice
Experimental: 10 μL of each experimental solution was administered to a corresponding pool of three mice. About 3 to 5 minutes after administration, blood samples were drawn from the retro-orbital sinuses (sinus retroorbitalis) of the mice, combined and centrifuged for 10 minutes at 3000 rpm. The collected serum was then deproteinized with 0.3 M trichloroacetic acid at a serum to acid ratio of about 0.2 ml to 1.0 ml. To complete the precipitation of proteins, the samples were maintained in a thermostat at 20° C. for about 20 minutes and then filtered through a 0.45 micron acetate cellulose filter. The filtrates were analyzed for aminophylline concentration by injecting 20 μL samples into an HPLC, Schimadzu LC-20AD with photodiode array detector (PDA) and Phenomenex Luna 5μ C18, […] column. Acetonitrile in 0.1M phosphoric acid was used as a Mobile phase with linear gradient of acetonitrile of 1-50% vol., pressure 6.3 Mpa, flow rate 0.5 ml/min, and detector wavelength of about 272 nm.
The chromatograms of serums from Controls 1 and 2 with aminophylline concentration of 4% by weight and 24% by weight are shown in FIGS. 9 and 10, respectively. Similar chromatograms were prepared for all of the samples. The areas of the aminophylline peaks that are proportional to its concentration in the blood taken from the retro-orbital sinus, are presented in Table 6 below: […]

Row | SMILES | Aminophylline Concentration in Blood Serum [µg/mL]
1 | Cn1c(=O)c2[nH]cnc2n(C)c1=O [Control-2, aminophylline] | 20.09
2 | Cn1c(=O)c2[nH]cnc2n(C)c1=O [Control-1, aminophylline] | 19.91

Reference: patent US9649282B2, “Diversion- and/or abuse-resistant compositions and methods for making the same” (Invincible Biotechnology, LLC, priority 2010, dated 2017)
